Experimental findings from patent US10544130B2, “Metallo-beta-lactamase inhibitors” (priority 2015, dated 2020) are described below.

Molecules are shown by their SMILES.

In this series the test system is Pseudomonas aeruginosa PAO1 MB9798 (efflux+, IMP-1). Conditions: ratio MITC95 PA 9798/MITC95 PA 9799; imipenem at 2 μg/mL. Put shortly:
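Isogenic PAO1 pair (efflux+ MB9798, efflux− MB9799, both IMP-1) tested by microbroth MIC with fixed imipenem and/or ceftazidime, usually at CLSI breakpoint, plus fixed class A/C inhibitor against AmpC. MBL inhibitor titrated; concentration restoring susceptibility recorded and fold difference between strains taken as efflux extent.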
On to `NC[C@H](O)CNS(=O)(=O)c1ccc(-c2cccc3[nH]cnc23)c(-c2nn[nH]n2)c1S(N)(=O)=O` [Example 307, (S)-4-(1H-benzo[d]imidazol-4-yl)-N1-(3-amino-2-hydroxypropyl)-3-(2H-tetrazol-5-yl)-benzene-1,2-disulfonamide], for which the Efflux ratio was found to be 1.00.

In the case of `NC[C@H](O)CNS(=O)(=O)c1ccc(-c2ccc(N)nc2)c(-c2nn[nH]n2)c1S(N)(=O)=O` [Example 309, (S)-N1-(3-amino-2-hydroxypropyl)-4-(6-aminopyridin-3-yl)-3-(2H-tetrazol-5-yl)benzene-1,2-disulfonamide], the Efflux ratio is 1.00.

As for `Nc1ccc(-c2ccc(S(=O)(=O)NC[C@@H]3CNCCN3)c(S(N)(=O)=O)c2-c2nn[nH]n2)cn1` [Example 312, (S)-4-(6-aminopyridin-3-yl)-N1-(piperazin-2-ylmethyl)-3-(2H-tetrazol-5-yl)benzene-1,2-disulfonamide], the Efflux ratio is recorded as 1.00.

Turning to `Nc1ccc(-c2ccc(S(=O)(=O)NC[C@H]3CNCCN3)c(S(N)(=O)=O)c2-c2nn[nH]n2)cn1` [Example 315, (R)-4-(6-aminopyridin-3-yl)-N1-(piperazin-2-ylmethyl)-3-(1H-tetrazol-5-yl)benzene-1,2-disulfonamide], the Efflux ratio is on record as 1.00.

Regarding `Nc1ncccc1-c1ccc(S(=O)(=O)NC[C@H]2CNCCN2)c(S(N)(=O)=O)c1-c1nn[nH]n1` [Example 316, (R)-4-(2-aminopyridin-3-yl)-N1-(piperazin-2-ylmethyl)-3-(1H-tetrazol-5-yl)benzene-1,2-disulfonamide], the Efflux ratio stood at 2.00.

Turning to `C[C@H](CN)NS(=O)(=O)c1ccc(-c2cccc(N)n2)c(-c2nn[nH]n2)c1S(N)(=O)=O` [Example 318, (R)—N1-(1-aminopropan-2-yl)-4-(6-aminopyridin-2-yl)-3-(2H-tetrazol-5-yl) benzene-1,2-disulfonamide], the Efflux ratio worked out at 1.00.

Take `Nc1ccc2cccc(-c3ccc(S(=O)(=O)N[C@@H]4CNC[C@@H]4N)c(S(N)(=O)=O)c3-c3nn[nH]n3)c2n1` [Example 319, N^1-((3R,4S)-4-aminopyrrolidin-3-yl)-4-(2-aminoquinolin-8-yl)-3-(2H-tetrazol-5-yl)benzene-1,2-disulfonamide]: the Efflux ratio is 1.00.

Take `NCCNS(=O)(=O)c1ccc(-c2cccc(C(=O)NC[C@@H](N)CO)c2N)c(-c2nn[nH]n2)c1S(N)(=O)=O` [Example 332, (R)-2-amino-N-(2-amino-3-hydroxypropyl)-4′-(N-(2-aminoethyl)sulfamoyl)-3′-sulfamoyl-2′-(2H-tetrazol-5-yl)-[1,1′-biphenyl]-3-carboxamide]: the Efflux ratio came to 1.00.

`NCCNS(=O)(=O)c1ccc(-c2cccc(C(=O)NC[C@H](N)CO)c2N)c(-c2nn[nH]n2)c1S(N)(=O)=O` [Example 333, (S)-2-amino-N-(2-amino-3-hydroxypropyl)-4′-(N-(2-aminoethyl)sulfamoyl)-3′-sulfamoyl-2′-(2H-tetrazol-5-yl)-[1,1′-biphenyl]-3-carboxamide]: the Efflux ratio worked out at 1.00.

As to `NCCNS(=O)(=O)c1ccc(C2CCC[C@H](N)C2)c(-c2nn[nH]n2)c1S(N)(=O)=O` (stereo partly drawn) [Example 342, 4-((3S)-3-aminocyclohexyl)-N1-(2-aminoethyl)-3-(2H-tetrazol-5-yl)benzene-1,2-disulfonamide], the Efflux ratio is reported as 4.00.

For `NCCNS(=O)(=O)c1ccc(-c2ccc3ncn(CCN)c3c2)c(-c2nn[nH]n2)c1S(N)(=O)=O` [Example 348, N^1-(2-aminoethyl)-4-(1-(2-aminoethyl)-1H-benzo[d]imidazol-6-yl)-3-(2H-tetrazol-5-yl)benzene-1,2-disulfonamide], the Efflux ratio is given as 4.00.

As to `Nc1ccc(-c2ccc(S(=O)(=O)NC[C@@H](N)CO)c(S(N)(=O)=O)c2-c2nn[nH]n2)cn1` [Example 365, (R)—N1-(2-amino-3-hydroxypropyl)-4-(6-aminopyridin-3-yl)-3-(2H-tetrazol-5-yl) benzene-1,2-disulfonamide], the Efflux ratio is 2.00.
